US20170105981A1, “METHODS FOR STABILIZING HYPOXIA INDUCIBLE FACTOR-2 ALPHA AS A METHOD FOR TREATING CANCER” (The Ohio State Innovation Foundation, priority 2011, published 2017)

Key:
VEGF mRNA [1] = test: VEGF mRNA expression (qPCR) in wild type murine embryonic fibroblasts; assay type: cell-based; details: hypoxic conditions (1% O2), 1, 10 and 100 μM, vs. hypoxia control, FIG. 1A
Procedure: (§1) Total RNA was isolated from tissues and cells by using TRIzol™ Reagent (Invitrogen) and the RNeasy kit (Qiagen), respectively. 1 μg RNA was used for reverse transcription using SuperScript II First-Strand Synthersis System (Invitrogen). cDNA's were amplified in a SYR Green or TaqMan Universal Master Mix (Applied Biosystems). Quantitative PCR (qPCR) was performed on ABI Prism 7700 sequence detection system. PCR conditions are: 10 min at 95° C., 40 cycles of 15 seconds at 95° C. and 1 minute at 60° C. The relative amount of mRNA was calculated after normalization to β-actin.
(§2) Cells were cultured in DMEM (#11965-092, Invitrogen) supplemented with 10% fetal bovine serum (Invitrogen), 100 U/mL penicillin and […] streptomycin. For glucose deprivation, DMEM without glucose (#11966-025, Invitrogen) was used.
(§3) Mouse embryonic fibroblasts (MEFs) were isolated from E12.5 embryos and immortalized by stable transfection with SV40 large T antigen.

VEGF mRNA [2] = test: VEGF mRNA expression (qPCR) in HIF-1α−/− fibroblasts; assay type: cell-based, murine; details: hypoxic conditions (1% O2), 1, 10 and 100 μM, vs. hypoxia control, FIG. 1B
Procedure: as §1, §2, §3

[3] = test system: phosphoglycerate kinase (PGK) mRNA; test: PGK mRNA expression (qPCR) in wild type murine embryonic fibroblasts; assay type: cell-based; details: hypoxic conditions (1% O2), 1, 10 and 100 μM, vs. hypoxia control, FIG. 2A
Procedure: as §1, §2, §3

VEGF = VEGF production by human peripheral blood monocytes (ELISA, real-time PCR); assay type: cell-based; details: monocytes with GM-CSF and compound vs GM-CSF alone; p=0.556; FIG. 11C
Procedure: Human peripheral blood mononuclear cells (PBMCs) were isolated from fresh peripheral blood leukocyte source packs (American Red Cross, Columbus Ohio) by density gradient centrifugation over Lymphocyte Separation Medium (Cellgro). Monocytes were purified from total PBMCs by layering over FBS. Monocytes were cultured in endotoxin-free RPMI-1640 supplemented with 1% fetal bovine serum (FBS), 0.1% human serum albumin (HSA), and 10 μg/mL of the endotoxin inhibitor polymyxin B. In some experiments, freshly isolated monocytes were differentiated into macrophages by three-day culture in media containing 10% FBS, 1% PSA (penicillin G sodium, streptomycin sulfate, and amphotericin B), and 20 ng/mL M-CSF. Macrophages were serum-starved for 2 hours prior to stimulation. Monocytes or monocyte-derived macrophages were treated for 24 hours with 10 ng/mL GM-CSF, 10 μM disclosed HIF-2α stabilizer, or an equivalent volume of the vehicle controls (PBS or DMSO, respectively). Cell-free culture supematants were harvested and analyzed for VEGF or sVEGFR-1 by ELISA (R&D Systems).
Human monocytes were left untreated or were stimulated with 100 ng/mL GM-CSF at normoxia or at 0.5% O2. At various time-points, cells were harvested in Trizol reagent (Invitrogen) and RNA was extracted in chloroform and then purified using the RNeasy Minikit (Qiagen). In murine studies, organs harvested at the time of euthanasia were flash-frozen in liquid nitrogen, pulverized in liquid nitrogen, and then dissolved in Trizol. cDNA was generated from 1 μg of RNA using the Superscript First Strand Synthesis System (Invitrogen) and used for real-time PCR using previously described primers and SYBR Green PCR Master Mix (Applied Biosciences), according to the manufacturer's instructions. Data were analyzed according to the comparative threshold method and normalized against the β-actin internal control transcript. Results are semi-quantitative and represent the fold difference in transcript levels in a particular sample as compared with levels in untreated cells from the same donor. […]

HIF-2α = test: Immunoblot for HIF-2α in murine bone marrow-derived macrophages; assay type: cell-based; details: murine bone marrow-derived macrophages treated 18 hours; p=0.001; FIG. 11A
Procedure: To generate bone marrow-derived macrophages (BDMs), femoral bone marrow was isolated and progenitor cells were plated in RPMI-1640 supplemented with 10% FBS, 1% PSA, 10 μg/mL of polymyxin B, and 20 ng/mL of recombinant murine M-CSF. Cells were cultured for 5 days with the addition of fresh M-CSF every other day. Differentiated BDM were serum-starved for 2 hours and then treated with 100 ng/mL of murine GM-CSF and/or 25 μM the disclosed HIF-2α stabilizer in RPMI-1640 containing 1% FBS and 10 μg/mL polymixin B. Culture supernatants were collected after 72 hours and assayed for VEGF and sVEGFR-1 content by ELISA (R&D Systems).
In order to confirm the selective upregulation of HIF-2α by the disclosed HIF-2α stabilizer, murine bone marrow-derived macrophages were treated with the disclosed HIF-2α stabilizer for 18 hours, and cells were then lysed and immunoblotted for HIF-1α and HIF-2α.

sVEGFR-1 = sVEGFR-1 transcription in bone marrow-derived macrophages (LysMcre control vs HIF-2αflox/flox/LysMcre); assay type: cell-based, mice; details: p=0.036, FIG. 11F
Text: (§4) HIF-2α^flox/flox mice (originally developed by Dr. Celeste Simon, University of Pennsylvania) and LysMcre recombinase mice (originally developed by Irmgard Foerster, University of Duesseldorf) (both purchased from The Jackson Laboratory, Bar Harbor, Me.) were crossed to generate mice homozygous for both LysMcre and the floxed HIF-2α allele. LysMcre recombinase mice, which express no floxed alleles, were used as controls. Deletion of HIF-2α in HIF-2α^flox/flox/LysMcre macrophages, but not the LysMcre control macrophages, was confirmed at the transcript level by real-time PCR.
To generate bone marrow-derived macrophages (BDMs), femoral bone marrow was isolated and progenitor cells were plated in RPMI-1640 supplemented with 10% FBS, 1% PSA, 10 μg/mL of polymyxin B, and 20 ng/mL of recombinant murine M-CSF. Cells were cultured for 5 days with the addition of fresh M-CSF every other day. […]
Human monocytes were left untreated or were stimulated with 100 ng/mL GM-CSF at normoxia or at 0.5% O2. […] Data were analyzed according to the comparative threshold method and normalized against the β-actin internal control transcript. Results are semi-quantitative and represent the fold difference in transcript levels in a particular sample as compared with levels in untreated cells from the same donor. […]

[4] = test system: tumor growth in HIF-2αflox/flox/LysMcre and LysMcre mice; test: Tumor growth in mice with myeloid-specific deletion of HIF-2α vs LysMcre control mice; assay type: in vivo; details: FIG. 15
Text: as §4
The disclosed HIF-2α stabilizer is not targeted specifically to macrophages, and will stabilize HIF-2α in all tissues, not only the tumor-associated macrophages. In order to determine the role of macrophages in the anti-tumor response to the disclosed HIF-2α stabilizer, mice with a myeloid-specific deletion of HIF-2α (HIF-2α^flox/flox/LysMcre mice) were utilized.

In the case of `O=C(O)CNC(=O)c1ncc(-c2cccc(F)c2)cc1O` [disclosed HIF-2α stabilizer, {[5-(3-Fluorophenyl)-3-hydroxypyridine-2-carbonyl]amino} acetic acid], the “VEGF mRNA (relative amount)” value (VEGF mRNA [1]) is reported as “dramatic reduction”, the “VEGF mRNA (relative amount)” value (VEGF mRNA [2]) is reported as “dramatic reduction” and the “PGK mRNA (relative amount)” value [3] is reported as “dramatic reduction”. The VEGF transcript levels (VEGF) was “no difference”, the HIF-2α protein (HIF-2α) was “increase” and the sVEGFR-1 transcription (sVEGFR-1) was “induced”. The tumor growth ([4]; LysMcre control mice) was “inhibited tumor growth” and the tumor growth ([4]; mice with HIF-2α-deficient macrophages, magnitude much less than in control mice) was “reduced tumor growth”.
